# Test results taken from patent US6861448B2, “NAD synthetase inhibitors and uses thereof” (priority 1998, dated 2005).
# “And” between values parts separate entries of the source, which are not always exact repeats. Equal values may be shown once. Where a name gives a salt, the structure may show the parent alone. Read-outs that look alike come from different tables or passages of the source.
# Columns and labels:
# B. subtilis = test: microbe, parasite or virus in culture; format: cell-based; settings: multiple values = two or more tests; for MIC: Bacillus subtilis, read-out: Minimal Inhibitory Concentration (MIC), B. subtilis
# S. aureus (MCR) = test: microbe, parasite or virus in culture; format: cell-based; settings: for MIC: Staphylococcus aureus, read-out: Minimal Inhibitory Concentration (MIC), S. aureus (MCR), multiple values = two or more tests; for Minimal Inhibitory Concentration (MIC), S. aureus (MCR): multiple values = two or more tests
# [1] = test system: Bacillus anthracis Sterne 34F2; test: microbe, parasite or virus in culture; format: cell-based; settings: Bacillus anthracis
# [2] = test system: rabbit primary renal cells (RPRC); test: Cytotoxicity in rabbit primary renal cells (annexin V / PI flow cytometry); format: cell-based; settings: 24 hr, mean ± SEM; for % CELLULAR NECROSIS (RPRC): at 300 μM; for % APOPTOSIS (RPRC): at peak effect (30 μM)
# Description: Cytotoxicity in Rabbit Primary Renal Cells
# Isolation of Proximal Tubules and Culture Conditions
# Rabbit renal proximal tubules were isolated using the iron oxide perfusion method and grown in 35-mm tissue culture dishes under improved conditions. The cell culture medium was a 1:1 mixture of DMEM/Ham's F-12 (without D-glucose, phenol red, or sodium pyruvate) supplemented with 15 mM HEPES buffer, 2.5 mM L-gluatmine, 1 μM pyridoxine HCL, 15 mM sodium bicarbonate, and 6 mM lactate. Hydrocortisone (50 nM), selenium (5 ng/mL), human transferrin (5 μg/mL), bovine insulin (10 nM) and L-ascorbic acid-2-phosphate (50 μM) were added to fresh culture medium immediately prior to daily media change.
# All numbered compounds were diluted in methanol and the final concentration of methanol in RPRC was less then 0.1% (v/v).
# Measurement of RPRC Death
# Cell death was monitored in RPRC by assessment of both annexin V and PI staining using flow cytometry. Briefly, RPRC were exposed to the indicated concentrations of compounds for 24 hr. Media was removed and RPRC washed twice with phosphate-buffered saline (PBS) and incubated in a binding buffer (10 mM HEPES, 140 mM NaCL, 5 mM KCL, 1 mM MgCl2, 1.8 mM CaCl2, pH=7.4) containing annexin V-FITC (1 μmol) and PI (25 μg/mL). After a 10 min incubation, RPRC were washed three times in the binding buffer and were released from the monolayers by gentle scrapping with a rubber policeman. Annexin V and PI staining were measured using a BectonDickson FacsCalibur flow cytometer (San Jose, Calif.). An equal number of cells (10,000) were counted for sample and apoptotic cells were defined as those that stained positive for annexin V-FITC only. RPRC undergoing necrotic cell death stained for PI only.
# RPRC isolated from one rabbit represented one experiment (n=1). Data were analyzed and are reported as means±standard error of the mean of at least 3 separate experiments.
# NAD synthetase = NAD synthetase (Bacillus subtilis, UniProt P08164); test: NAD synthetase coupled enzyme assay; format: biochemical
# NAD synthetase, sequence (P08164 whole entry): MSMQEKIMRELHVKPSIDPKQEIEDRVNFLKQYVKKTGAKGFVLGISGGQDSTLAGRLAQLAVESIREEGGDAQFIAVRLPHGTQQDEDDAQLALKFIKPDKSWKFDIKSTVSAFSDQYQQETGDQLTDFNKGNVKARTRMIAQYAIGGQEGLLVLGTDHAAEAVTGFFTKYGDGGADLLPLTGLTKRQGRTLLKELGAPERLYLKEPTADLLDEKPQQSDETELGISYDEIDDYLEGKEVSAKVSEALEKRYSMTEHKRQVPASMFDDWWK
# Source text: This Example illustrates the NAD synthetase enzyme inhibiting activity of some compounds of the present invention. [drawing 48] The coupled assay—production of NAD was monitored through conversion to NADH by alcohol dehydrogenase. [NADH] was monitored by 2 parallel methods: the change in absorbance at 340 nm, and fluorescence at 460 nm (excitation 320 nm). […] Controls were included for determining inhibitor background, precipitation, and ADH inhibition.
# E. coli = test: MIC test (NCCLS broth dilution), growth inhibition; format: cell-based; settings: for MIC: Escherichia coli
# Description: (§1) Antimicrobial Testing (P. aeruginosa, E. coli, B. subtilis, S. aureus, S. aureus (MCR), A. niger and M. flavescens.)
# (§2) The test compounds were solubilized, diluted, and pipetted in duplicate into 10 mL sterile culture tubes and dried under vacuum.
# (§3) Challenge organisms, specified were grown overnight at 37° C. in the appropriate medium (i.e., Mueller-Hinton Broth). These pure broth cultures were diluted 1:1,000 and 2.0 mL were added to the test compound tubes.
# (§4) Appropriate media controls, challenge organism viability controls, and antibiotic control dilutions (i.e., ampicillin and nystatin), were prepared in the same manner as the test compounds and run against the challenge organisms.
# P aeruginosa = test: MIC test (NCCLS broth dilution), growth inhibition; format: cell-based; settings: for MIC: Pseudomonas aeruginosa, read-out: Potency to inhibit growth, P aeruginosa (MIC)
# Description: as §1, §2, §3, §4
# C. albicans = test: MIC test, fungal growth inhibition; format: cell-based; settings: in vitro; for MIC: Candida albicans, read-out: Potency to inhibit growth, C. albicans (MIC)
# Description: (§5) The MIC test procedures conformed to the present protocol from the National Committee for Clinical Laboratory Standards (NCCLS), and were designed to provide basic antimicrobial data on compounds based on the MIC of the active component.
# as §2, §3, §4
# A. niger = test: MIC test, fungal growth inhibition; format: cell-based; settings: for MIC: Aspergillus niger, read-out: Potency to inhibit growth, A. niger (MIC)
# Description: as §1, §5, §2, §3, §4
# S. aureus = test: microbe, parasite or virus in culture; format: cell-based; settings: multiple values = two or more tests; for MIC: Staphylococcus aureus, read-out: Minimal Inhibitory Concentration (MIC), S. aureus
# M. flavescens = test: microbe, parasite or virus in culture; format: cell-based; settings: for MIC: Mycolicibacterium flavescens, read-out: Minimal Inhibitory Concentration (MIC), M. flavescens
# Murine 3T3 cells = test: Cytotoxicity in murine 3T3 cells (LDH release); format: cell-based; settings: at 100 μM, 20 hrs
# Description: (§6) Prior to conducting the assay, cell number, serum concentration, and medium conditions were optimized. Then using the assay conditions as described below, cells were seeded on day 1 and allowed to adhere for at least 1 hour. […] The initial solubilization of the test articles was in 50:50 methanol:water (v/v). […] On day 1, compounds 1439 and 1364 required sonication before solubility was reached). The cells plus compound were incubated overnight at 37° C., under a 5% CO2/[…] atmosphere. On day 2, the cells in the positive control wells were lysed with 0.9% Triton X-100 for 45 minutes to establish maximum levels of LDH release. The plates were centrifuged at 250× g for 5 minutes, the supernatants transferred to a new assay plate, and the LDH was measured. The assay plates were read at OD 490 nm.
# [3] = Solubilization of test articles in methanol:water; format: physicochemical; settings: 50:50 methanol:water (v/v)
# Description: as §6
# [4] = STERNE34F2, read-out: approximate MIC, B. anthracis (first value)
# [5] = STERNE34F2, read-out: approximate MIC, B. anthracis (second value)
# [6] = NAD synthetase 2.0 μg/mL, 0.1 mM NaAD, 0.2 mM ATP, pH 8.5
# [7] = in vitro, read-out: Potency to inhibit growth, E. coli (MIC)
compound,measurement,setting,value
C[N+](C)(C)C(Cc1ccccc1)C(=O)NCCCCCCCCOc1ccc(OC(=O)c2cccc(Cl)c2)cc1 (stereo not drawn) [Compound 1594],MIC,B. subtilis,> 50 µg/mL
same,MIC,S. aureus (MCR),< 6.25 µg/mL
same,MIC,[1]; [4],8 µg/mL
same,MIC,[1]; [5],32 µg/mL
same,% CELLULAR NECROSIS (RPRC),[2],29 ± 4%
same,% APOPTOSIS (RPRC),[2],13 ± 2%
same,IC50,NAD synthetase; [6],25 µM
C[N+](C)(C)[C@@H](Cc1ccccc1)C(=O)NCCCCCCCCn1ccc2cc(OCc3ccccc3)ccc21.[I-] [Compound 1447],"Potency to inhibit growth, E. coli (MIC)",E. coli; in vitro,>50: <50 μg/mL
same,"Potency to inhibit growth, P aeruginosa (MIC)",P aeruginosa; in vitro,>50; >50 μg/mL
same,"Potency to inhibit growth, C. albicans (MIC)",C. albicans,< 6.25 µg/mL and < 3.13 µg/mL
same,"Potency to inhibit growth, A. niger (MIC)",A. niger; in vitro,>50; >50 μg/mL
same,"Minimal Inhibitory Concentration (MIC), B. subtilis",B. subtilis,<1.56 µg/mL and <0.78 µg/mL
same,"Minimal Inhibitory Concentration (MIC), S. aureus",S. aureus,<1.56; μg/mL and <0.78 μg/mL
same,"Minimal Inhibitory Concentration (MIC), S. aureus (MCR)",S. aureus (MCR),<1.56; μg/mL and <1.56 μg/mL
same,"Minimal Inhibitory Concentration (MIC), M. flavescens",M. flavescens,<6.25 µg/mL
same,IC50,NAD synthetase; [6],22.1 µM
COc1cccc(COc2ccc(OCCCCCCCCNC(=O)[C@H](Cc3ccccc3)[N+](C)(C)C)cc2)c1.[I-] [Compound 1423],"Potency to inhibit growth, E. coli (MIC)",E. coli; in vitro,>50 µg/mL
same,"Potency to inhibit growth, P aeruginosa (MIC)",P aeruginosa; in vitro,>50 µg/mL
same,"Potency to inhibit growth, C. albicans (MIC)",C. albicans,<3.13 µg/mL
same,"Potency to inhibit growth, A. niger (MIC)",A. niger; in vitro,<50 µg/mL
same,"Minimal Inhibitory Concentration (MIC), B. subtilis",B. subtilis,<0.20 µg/mL
same,"Minimal Inhibitory Concentration (MIC), S. aureus",S. aureus,<1.56 µg/mL
same,"Minimal Inhibitory Concentration (MIC), S. aureus (MCR)",S. aureus (MCR),<1.56 µg/mL
same,IC50,NAD synthetase; [6],32.9 µM
C[N+](C)(C)[C@H](COCCCCCCCCOc1ccc(OCc2ccccc2)cc1)Cc1ccccc1 [Compound 1439],MIC,E. coli; [7],< 12.5 µg/mL
same,MIC,P aeruginosa; in vitro,> 50 µg/mL
same,MIC,C. albicans,< 3.13 µg/mL
same,MIC,A. niger; in vitro,< 25 µg/mL
same,MIC,B. subtilis,< 0.39 µg/mL
same,MIC,S. aureus,< 0.78 µg/mL
same,MIC,S. aureus (MCR),< 1.56 µg/mL
same,MIC,[1]; [4],4 µg/mL
same,MIC,[1]; [5],4 µg/mL
same,MIC,M. flavescens,< 12.5 µg/mL
same,% CELLULAR NECROSIS (FIBROBLASTS),Murine 3T3 cells,73%
same,% CELLULAR NECROSIS (RPRC),[2],62 ± 2%
same,% APOPTOSIS (RPRC),[2],10 ± 1%
same,IC50,NAD synthetase,22.7 µM
same,solubility of test article in methanol:water,[3],never went into solution at 50% organic
"C[C@H]1c2cccc(O)c2C(=O)C2=C(O)[C@]3(O)C(=O)C(C(N)=O)=C(O)[C@@H](N(C)C)[C@@H]3[C@@H](O)[C@@H]21 [Doxycycline, reference compound]",MIC,E. coli; [7],< 1.56 µg/mL
same,MIC,P aeruginosa; in vitro,< 30 µg/mL
same,MIC,B. subtilis,< 1.56 µg/mL
same,MIC,S. aureus,< 1.56 µg/mL
same,MIC,S. aureus (MCR),< 30 µg/mL
C[N+](C)(C)[C@@H](Cc1ccccc1)C(=O)NCCCCCCCCOc1ccc2c(c1)C(=O)CC(c1ccccc1)O2.[I-] (stereo partly drawn) [Compound 1450],"Potency to inhibit growth, E. coli (MIC)",E. coli; in vitro,>50 µg/mL
same,"Potency to inhibit growth, P aeruginosa (MIC)",P aeruginosa; in vitro,>50 µg/mL
same,"Potency to inhibit growth, C. albicans (MIC)",C. albicans,<6.25 µg/mL
same,"Potency to inhibit growth, A. niger (MIC)",A. niger; in vitro,>50 µg/mL
same,"Minimal Inhibitory Concentration (MIC), B. subtilis",B. subtilis,<3.13 µg/mL
same,"Minimal Inhibitory Concentration (MIC), S. aureus",S. aureus,<3.13 µg/mL
same,"Minimal Inhibitory Concentration (MIC), S. aureus (MCR)",S. aureus (MCR),<3.13 µg/mL
same,"Minimal Inhibitory Concentration (MIC), M. flavescens",M. flavescens,<3.13 µg/mL
same,IC50,NAD synthetase; [6],31.7 µM
C[N+](C)(C)C(Cc1ccccc1)C(=O)NCCCCCCCCOc1ccc(OC(=O)c2cc(F)cc(F)c2F)cc1 (stereo not drawn) [Compound 1617],MIC,B. subtilis,< 12.5 µg/mL
same,MIC,S. aureus (MCR),< 6.25 µg/mL
same,MIC,[1]; [4],16 µg/mL
same,% CELLULAR NECROSIS (RPRC),[2],18 ± 2%
same,% APOPTOSIS (RPRC),[2],23 ± 3%
same,IC50,NAD synthetase; [6],31.4 µM
N=C(N)N[C@@H](Cc1ccccc1)C(=O)NCCCCCCCCOc1ccc(OCc2ccccc2)cc1 [Compound 1503],MIC,E. coli; [7],> 50 µg/mL
same,MIC,P aeruginosa; in vitro,> 50 µg/mL
same,MIC,C. albicans,> 50 µg/mL
same,MIC,A. niger; in vitro,> 50 µg/mL
same,MIC,S. aureus,< 0.78 µg/mL
same,MIC,S. aureus (MCR),< 0.78 µg/mL
same,"Minimal Inhibitory Concentration (MIC), S. aureus (MCR)",S. aureus (MCR),<1.56 µg/mL
same,MIC,[1]; [4],8 µg/mL
same,MIC,[1]; [5],16 µg/mL
same,MIC,M. flavescens,> 50 µg/mL
same,IC50,NAD synthetase,12.7 µM
C[N+](C)(C)C(Cc1ccccc1)C(=O)NCCCCCCCCOc1ccc(OCc2ccccc2)cc1 (stereo not drawn) [Compound 1364],MIC,"E. coli; read-out: Potency to inhibit growth, E. coli (MIC), in vitro",< 50 µg/mL
same,MIC,P aeruginosa,> 50 µg/mL
same,MIC,A. niger,> 50 µg/mL
same,MIC,S. aureus (MCR),< 0.78 µg/mL
same,"Minimal Inhibitory Concentration (MIC), S. aureus (MCR)",S. aureus (MCR),<1.56 µg/mL
same,MIC,M. flavescens,> 50 µg/mL
same,% CELLULAR NECROSIS (FIBROBLASTS),Murine 3T3 cells,62%
same,% CELLULAR NECROSIS (RPRC),[2],63 ± 2%
same,% APOPTOSIS (RPRC),[2],15 ± 3%
same,IC50,NAD synthetase,48.4 µM
same,solubility of test article in methanol:water,[3],"went into solution on day 1, but precipitated on day 2"
"C[C@@H]1[C@H](O)[C@@H](C)/C=C/C=C/C=C/C=C/C=C/C=C/C=C/[C@H](O[C@@H]2O[C@H](C)[C@@H](O)[C@H](N)[C@@H]2O)C[C@@H]2O[C@](O)(C[C@@H](O)C[C@@H](O)[C@H](O)CC[C@@H](O)C[C@@H](O)CC(=O)O[C@H]1C)C[C@H](O)[C@H]2C(=O)O [Amphotericin B, reference compound]","Potency to inhibit growth, C. albicans (MIC)",C. albicans,<1.56 µg/mL
same,"Potency to inhibit growth, A. niger (MIC)",A. niger; in vitro,<1.56 µg/mL
N=C(N)N[C@@H](Cc1ccccc1)C(=O)NCCCCCCCCOc1ccc(OCc2ccccc2)cc1 (as salt: trifluoroacetic acid salt) [Compound 1503],melting point,,108 to 113 °C
